From patent US8415469B2, “Compounds and methods for kinase modulation, and indications therefor” (Plexxikon Inc., priority 2005, dated 2013)

What was measured:
Type in all cases: biochemical
MAP4K4 = MAP4K4 (Homo sapiens, UniProt O95819); test: AlphaScreen kinase assay, MAP4K4; conditions: read-out: IC50, activity toward kinase MAP4K4
Flt1 = target: T1, Flt1 (Homo sapiens, UniProt P17948); test: AlphaScreen kinase assay, Flt1; conditions: read-out: IC50, activity toward kinase Flt1
T1 construct: P1826.pETN6 BI-PTP FLT1 M799-D1165-X WT; His6 (N); made in house; host or cells: E. coli (PTP1B co-expressed)
T1 sequence (P17948 with tags, fused parts or gaps): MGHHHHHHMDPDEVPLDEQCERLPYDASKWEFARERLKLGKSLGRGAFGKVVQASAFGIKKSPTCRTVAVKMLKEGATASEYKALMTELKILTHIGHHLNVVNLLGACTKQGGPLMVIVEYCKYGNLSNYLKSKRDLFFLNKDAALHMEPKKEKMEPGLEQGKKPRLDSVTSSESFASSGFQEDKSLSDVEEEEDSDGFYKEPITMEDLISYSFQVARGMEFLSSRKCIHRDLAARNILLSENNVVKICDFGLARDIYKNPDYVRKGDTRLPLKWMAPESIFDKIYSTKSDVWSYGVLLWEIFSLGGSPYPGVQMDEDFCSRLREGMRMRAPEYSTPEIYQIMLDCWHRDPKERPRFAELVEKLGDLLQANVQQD

Stk6 = target: T2, Stk6 (Homo sapiens, UniProt O14965); test: Z'-Lyte FRET kinase assay (Invitrogen), Stk6; conditions: read-out: IC50, activity toward kinase Stk6
T2 construct: purchased Invitrogen (Carlsbad, Calif.), screening service
T2 sequence (O14965 1-403): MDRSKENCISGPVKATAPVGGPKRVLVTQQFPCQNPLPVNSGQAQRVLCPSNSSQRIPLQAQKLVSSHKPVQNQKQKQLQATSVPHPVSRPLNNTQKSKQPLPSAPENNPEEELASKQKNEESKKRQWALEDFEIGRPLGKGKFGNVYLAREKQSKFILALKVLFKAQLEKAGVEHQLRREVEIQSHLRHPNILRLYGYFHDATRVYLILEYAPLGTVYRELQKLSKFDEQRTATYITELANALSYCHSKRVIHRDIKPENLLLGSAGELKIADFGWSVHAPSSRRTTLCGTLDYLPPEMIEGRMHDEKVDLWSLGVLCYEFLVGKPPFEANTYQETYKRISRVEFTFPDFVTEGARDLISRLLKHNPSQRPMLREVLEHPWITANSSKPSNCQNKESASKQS

Fms = target: T3, Fms (Homo sapiens, UniProt P07333); test: AlphaScreen kinase assay, Fms; conditions: read-out: IC50, activity toward kinase Fms
T3 construct: purchased Upstate Biotechnology

Kit = target: T4, Kit (Homo sapiens, UniProt P10721); test: AlphaScreen kinase assay, Kit; conditions: read-out: IC50, activity toward kinase Kit
T4 construct: P1332.N6 BI PTP KIT M552-K948-X COD; His6 (N); made in house; host or cells: E. coli (PTP1B co-expressed)

Fak = target: T5, Fak (Homo sapiens, UniProt Q05397); test: AlphaScreen kinase assay, Fak; conditions: read-out: IC50, activity toward kinase Fak
T5 construct: P1358.pFastBacHtb FAK S411-Q686-X; His6 with pFastBacHTb leader (TEV site) (N); made in house; host or cells: Sf9 (baculovirus)

Kdr = target: T6, Kdr (Homo sapiens, UniProt P35968); test: Z'-Lyte FRET kinase assay (Invitrogen), Kdr; conditions: read-out: IC50, activity toward kinase Kdr
T6 construct: purchased Invitrogen (assay run by Invitrogen)

FGFR1 = target: T7, FGFR1 (Homo sapiens, UniProt P11362, C488A/C584S); test: AlphaScreen kinase assay, FGFR1; conditions: read-out: IC50, activity toward kinase FGFR
T7 construct: P1351.pET N6 BI-PTP FGFR A458-E765-X C488A, C584S; made in house; host or cells: E. coli (PTP1B co-expressed)

c-Raf-1 = target: T8, c-Raf-1 (Homo sapiens, UniProt P04049); test: AlphaScreen kinase assay, c-Raf-1; conditions: read-out: IC50, activity toward kinase c-Raf-1
T8 construct: purchased Upstate Biotechnology

B-Raf = target: T9, B-Raf (Homo sapiens, UniProt P15056); test: AlphaScreen kinase assay, B-Raf; conditions: read-out: IC50, activity toward kinase B-Raf
T9 construct: purchased Upstate Biotechnology

B-Raf V600E = target: T10, B-Raf V600E (Homo sapiens, UniProt P15056, V600E); test: AlphaScreen kinase assay, B-Raf V600E; conditions: read-out: IC50, activity toward kinase B-Raf V600E
T10 construct: P4254. pFastBacBD-CDC37 BRAF D437-K722-X, V600E; His6 with pFastBac HT leader (TEV site) (N); made in house; host or cells: Sf9 (baculovirus; chaperone CDC37 co-expressed)

Src = target: T11, Src (Homo sapiens, UniProt P12931); test: AlphaScreen kinase assay, Src; conditions: read-out: IC50, activity toward kinase Src
T11 construct: P1144. pET-N6 BI-PTP SRC V86-L536-X; made in house

Jnk3 = target: T12, Jnk3 (Homo sapiens, UniProt P53779); test: AlphaScreen kinase assay, Jnk3; conditions: read-out: IC50, activity toward kinase Jnk3
T12 construct: purchased Upstate Biotechnology

Jnk1 = target: T13, Jnk1 (Homo sapiens, UniProt P45983); test: AlphaScreen kinase assay, Jnk1; conditions: read-out: IC50, activity toward kinase Jnk1
T13 construct: purchased Upstate Biotechnology

Measured: IC50

T3 sequence (P07333 20-972): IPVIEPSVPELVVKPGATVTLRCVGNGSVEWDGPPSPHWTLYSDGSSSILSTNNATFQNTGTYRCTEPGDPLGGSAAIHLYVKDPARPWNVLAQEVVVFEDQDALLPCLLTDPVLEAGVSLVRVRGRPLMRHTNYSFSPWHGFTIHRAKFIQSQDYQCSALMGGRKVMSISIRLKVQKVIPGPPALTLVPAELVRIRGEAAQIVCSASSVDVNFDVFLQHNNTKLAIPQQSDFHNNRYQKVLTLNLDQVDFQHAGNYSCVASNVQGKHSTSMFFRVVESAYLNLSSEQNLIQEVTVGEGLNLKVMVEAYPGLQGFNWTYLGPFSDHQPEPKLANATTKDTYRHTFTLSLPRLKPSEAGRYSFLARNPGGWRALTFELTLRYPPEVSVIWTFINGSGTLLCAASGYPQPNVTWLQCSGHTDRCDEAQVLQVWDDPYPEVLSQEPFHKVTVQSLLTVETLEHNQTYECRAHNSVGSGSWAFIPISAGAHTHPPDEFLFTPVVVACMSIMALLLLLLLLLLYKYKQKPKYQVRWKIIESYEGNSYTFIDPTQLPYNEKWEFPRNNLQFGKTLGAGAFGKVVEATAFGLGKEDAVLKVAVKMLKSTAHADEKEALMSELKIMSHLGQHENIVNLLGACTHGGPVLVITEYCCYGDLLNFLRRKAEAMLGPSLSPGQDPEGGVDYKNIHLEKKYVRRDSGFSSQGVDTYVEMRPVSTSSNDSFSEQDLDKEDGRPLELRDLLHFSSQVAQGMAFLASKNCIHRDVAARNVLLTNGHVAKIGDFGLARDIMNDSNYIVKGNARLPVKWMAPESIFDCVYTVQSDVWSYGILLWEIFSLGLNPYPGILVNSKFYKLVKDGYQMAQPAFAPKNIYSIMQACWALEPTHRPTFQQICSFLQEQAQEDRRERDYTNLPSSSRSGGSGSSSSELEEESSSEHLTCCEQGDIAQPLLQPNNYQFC
T12 sequence (P53779 whole entry): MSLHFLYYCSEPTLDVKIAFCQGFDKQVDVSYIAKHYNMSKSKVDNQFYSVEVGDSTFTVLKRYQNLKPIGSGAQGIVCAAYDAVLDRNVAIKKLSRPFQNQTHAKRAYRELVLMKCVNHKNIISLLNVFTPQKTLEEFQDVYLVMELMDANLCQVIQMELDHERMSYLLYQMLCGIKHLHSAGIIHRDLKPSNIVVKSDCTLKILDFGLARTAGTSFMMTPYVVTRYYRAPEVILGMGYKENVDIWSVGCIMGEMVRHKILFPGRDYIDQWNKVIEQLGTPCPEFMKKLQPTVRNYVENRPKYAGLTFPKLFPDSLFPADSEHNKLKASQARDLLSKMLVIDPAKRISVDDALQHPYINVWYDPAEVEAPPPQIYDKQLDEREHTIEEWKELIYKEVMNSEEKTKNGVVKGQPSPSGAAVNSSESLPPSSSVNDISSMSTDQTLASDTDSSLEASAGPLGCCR
T4 sequence (P10721 with tags, fused parts or gaps): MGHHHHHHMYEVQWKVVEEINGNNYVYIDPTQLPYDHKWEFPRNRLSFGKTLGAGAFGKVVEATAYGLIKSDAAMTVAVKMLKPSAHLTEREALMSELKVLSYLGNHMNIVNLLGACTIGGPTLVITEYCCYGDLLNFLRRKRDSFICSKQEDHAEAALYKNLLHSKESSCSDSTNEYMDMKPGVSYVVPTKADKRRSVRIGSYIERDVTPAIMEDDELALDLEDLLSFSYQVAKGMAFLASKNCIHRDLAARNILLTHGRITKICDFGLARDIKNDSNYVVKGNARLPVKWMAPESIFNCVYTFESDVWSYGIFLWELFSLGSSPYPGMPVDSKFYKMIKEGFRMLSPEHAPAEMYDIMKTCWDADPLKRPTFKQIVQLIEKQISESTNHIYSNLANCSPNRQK
T11 sequence (P12931 with tags, fused parts or gaps): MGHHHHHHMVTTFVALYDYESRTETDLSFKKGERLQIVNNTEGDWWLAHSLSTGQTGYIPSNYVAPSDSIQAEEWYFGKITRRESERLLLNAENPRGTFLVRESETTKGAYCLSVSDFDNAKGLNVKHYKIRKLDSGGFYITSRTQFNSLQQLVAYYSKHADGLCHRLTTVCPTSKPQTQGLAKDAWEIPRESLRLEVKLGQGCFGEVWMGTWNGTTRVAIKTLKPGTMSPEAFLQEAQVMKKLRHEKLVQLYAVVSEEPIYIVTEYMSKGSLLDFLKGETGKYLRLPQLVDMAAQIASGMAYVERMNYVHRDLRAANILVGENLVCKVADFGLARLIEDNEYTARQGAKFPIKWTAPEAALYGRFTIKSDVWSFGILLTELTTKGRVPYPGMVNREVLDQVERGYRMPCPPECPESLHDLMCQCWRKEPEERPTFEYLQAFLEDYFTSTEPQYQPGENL
T8 sequence (P04049 whole entry): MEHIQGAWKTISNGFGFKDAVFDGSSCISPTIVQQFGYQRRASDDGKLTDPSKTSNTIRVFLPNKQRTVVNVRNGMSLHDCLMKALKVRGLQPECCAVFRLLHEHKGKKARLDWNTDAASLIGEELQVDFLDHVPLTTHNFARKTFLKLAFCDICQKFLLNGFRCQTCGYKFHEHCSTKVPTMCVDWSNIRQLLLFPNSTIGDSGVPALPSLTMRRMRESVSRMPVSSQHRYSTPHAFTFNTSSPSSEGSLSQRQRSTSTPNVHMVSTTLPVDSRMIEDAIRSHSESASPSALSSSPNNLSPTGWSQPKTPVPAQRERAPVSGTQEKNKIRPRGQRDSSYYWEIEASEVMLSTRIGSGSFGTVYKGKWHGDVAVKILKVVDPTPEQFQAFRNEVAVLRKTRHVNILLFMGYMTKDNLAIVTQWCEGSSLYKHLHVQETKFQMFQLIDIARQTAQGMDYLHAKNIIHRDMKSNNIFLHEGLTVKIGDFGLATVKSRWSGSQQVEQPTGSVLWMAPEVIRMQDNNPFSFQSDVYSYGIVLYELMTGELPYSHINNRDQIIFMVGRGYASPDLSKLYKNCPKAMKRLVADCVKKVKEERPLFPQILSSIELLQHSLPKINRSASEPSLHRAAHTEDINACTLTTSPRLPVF
T10 sequence (P15056 with tags, fused parts or gaps V600E): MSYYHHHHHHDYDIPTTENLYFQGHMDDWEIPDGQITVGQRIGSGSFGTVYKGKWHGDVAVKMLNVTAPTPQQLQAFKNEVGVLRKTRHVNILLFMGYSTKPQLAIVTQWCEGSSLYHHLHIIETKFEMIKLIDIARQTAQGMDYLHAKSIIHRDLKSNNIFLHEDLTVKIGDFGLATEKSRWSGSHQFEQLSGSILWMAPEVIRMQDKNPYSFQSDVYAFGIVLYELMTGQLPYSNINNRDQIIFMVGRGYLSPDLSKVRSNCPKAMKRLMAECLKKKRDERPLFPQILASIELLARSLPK
T9 sequence (P15056 whole entry): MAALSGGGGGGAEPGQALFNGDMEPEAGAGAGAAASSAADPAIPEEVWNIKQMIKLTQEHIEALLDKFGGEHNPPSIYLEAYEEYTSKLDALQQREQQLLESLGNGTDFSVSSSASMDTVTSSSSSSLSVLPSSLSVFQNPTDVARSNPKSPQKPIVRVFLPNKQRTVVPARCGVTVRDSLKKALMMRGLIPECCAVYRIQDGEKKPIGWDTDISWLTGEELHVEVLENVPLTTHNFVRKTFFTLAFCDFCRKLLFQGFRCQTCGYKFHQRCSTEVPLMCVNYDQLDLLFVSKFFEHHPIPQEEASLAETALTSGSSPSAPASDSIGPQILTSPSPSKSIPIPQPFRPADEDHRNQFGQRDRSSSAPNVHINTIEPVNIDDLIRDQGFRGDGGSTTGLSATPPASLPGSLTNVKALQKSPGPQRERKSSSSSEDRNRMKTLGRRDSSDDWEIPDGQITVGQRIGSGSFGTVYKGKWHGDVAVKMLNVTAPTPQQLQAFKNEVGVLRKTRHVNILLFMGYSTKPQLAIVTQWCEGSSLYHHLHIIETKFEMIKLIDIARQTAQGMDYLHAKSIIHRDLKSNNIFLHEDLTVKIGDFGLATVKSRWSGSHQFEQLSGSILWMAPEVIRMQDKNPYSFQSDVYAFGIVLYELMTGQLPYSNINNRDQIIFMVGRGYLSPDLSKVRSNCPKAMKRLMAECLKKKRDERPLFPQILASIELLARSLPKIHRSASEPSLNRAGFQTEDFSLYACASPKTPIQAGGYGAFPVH
T5 sequence (Q05397 411-686): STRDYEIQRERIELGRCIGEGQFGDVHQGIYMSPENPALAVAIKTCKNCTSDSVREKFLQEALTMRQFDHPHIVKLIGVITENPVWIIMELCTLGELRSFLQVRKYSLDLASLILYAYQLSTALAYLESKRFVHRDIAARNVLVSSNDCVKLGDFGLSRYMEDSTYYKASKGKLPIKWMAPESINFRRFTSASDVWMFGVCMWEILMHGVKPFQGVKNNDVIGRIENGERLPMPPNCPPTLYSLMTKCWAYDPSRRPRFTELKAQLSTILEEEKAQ
T7 sequence (P11362 458-765 C488A/C584S): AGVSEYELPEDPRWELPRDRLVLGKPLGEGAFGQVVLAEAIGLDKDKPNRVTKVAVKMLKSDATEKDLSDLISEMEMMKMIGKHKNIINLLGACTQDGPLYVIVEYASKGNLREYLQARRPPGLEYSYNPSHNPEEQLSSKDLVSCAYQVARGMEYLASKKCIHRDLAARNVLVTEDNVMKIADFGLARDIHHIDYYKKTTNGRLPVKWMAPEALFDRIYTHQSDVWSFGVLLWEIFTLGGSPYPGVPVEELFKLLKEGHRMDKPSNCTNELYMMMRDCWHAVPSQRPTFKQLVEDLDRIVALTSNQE

c1ccc(Sc2c[nH]c3ncccc23)nc1 [Compound P-0214]
≤ 10 µM: MAP4K4 | Flt1 | Stk6

COc1cc(Cc2c[nH]c3ncccc23)cc(OC)c1 [Compound P-0391]
≤ 10 µM: Fms | MAP4K4 | Kit | Fak | Kdr | FGFR1

CCCS(=O)(=O)Nc1cccc(C(=O)c2c[nH]c3ncccc23)c1F [Compound P-1056, propane-1-sulfonic acid [2-fluoro-3-(1H-1-pyrrolo[2,3-b]pyridine-3-carbonyl)-phenyl]-amide]
≤ 10 µM: MAP4K4 | c-Raf-1 | B-Raf | B-Raf V600E

COc1cc(Nc2ccnc3[nH]ccc23)cc(OC)c1OC [Compound P-0909]
≤ 10 µM: MAP4K4 | c-Raf-1 | B-Raf

COc1cc(OC)cc(C(=O)c2c[nH]c3ncc(-c4cccnc4)cc23)c1 [Compound P-1411, (3,5-Dimethoxy-phenyl)-(5-pyridin-3-yl-1H-pyrrolo[2,3-b]pyridin-3-yl)-methanone]
≤ 10 µM: Fms | MAP4K4 | Flt1 | Kit | B-Raf V600E | Fak | FGFR1

O=C(O)/C=C/c1cccc(-c2cnc3[nH]cc(C(=O)c4cccc(OC(F)(F)F)c4)c3c2)c1 [Compound P-1417, (E)-3-{3-[3-(3-Trifluoromethoxy-benzoyl)-1H-pyrrolo[2,3-b]pyridin-5-yl]-phenyl}-acrylic acid]
≤ 10 µM: MAP4K4 | Flt1 | Kit | B-Raf V600E | Src

O=C(c1c(F)ccc(NS(=O)(=O)c2ccc(Cl)cc2)c1F)c1c[nH]c2ncccc12 [Compound P-0937, 4-Chloro-N-[2,4-difluoro-3-(1H-pyrrolo[2,3-b]pyridine-3-carbonyl)-phenyl]-benzenesulfonamide]
≤ 10 µM: MAP4K4 | c-Raf-1 | B-Raf | Kit | B-Raf V600E | FGFR1

O=C(c1c(F)ccc(NS(=O)(=O)c2ccc(C(F)(F)F)cc2)c1F)c1c[nH]c2ncccc12 [Compound P-0931, N-[2,4-Difluoro-3-(1H-pyrrolo[2,3-b]pyridine-3-carbonyl)-phenyl]-4-trifluoromethyl-benzenesulfonamide]
≤ 10 µM: Fms | MAP4K4 | c-Raf-1 | B-Raf | Kit | B-Raf V600E

COc1ccc(-c2cnc3[nH]cc(C#Cc4cccc(C(=O)O)c4)c3c2)cc1OC [Compound P-0174]
≤ 10 µM: MAP4K4 | Stk6 | B-Raf V600E | Kdr

Clc1ncccc1Cc1c[nH]c2ncccc12 [Compound P-0317]
≤ 10 µM: Fms | MAP4K4 | Stk6

c1cncc(-c2cnc3[nH]ccc3c2)c1 [Compound P-0176]
≤ 10 µM: MAP4K4 | Stk6 | Kit | Kdr | Jnk3

Cc1[nH]c2ncccc2c1-c1cccc(F)c1 [Compound P-0986]
≤ 10 µM: MAP4K4 | Fak

CCCS(=O)(=O)Nc1ccc(Cl)c(C(=O)c2c[nH]c3ncccc23)c1F [Compound P-0904, Propane-1-sulfonic acid [4-chloro-2-fluoro-3-(1H-pyrrolo[2,3-b]pyridine-3-carbonyl)-phenyl]-amide]
≤ 10 µM: MAP4K4 | c-Raf-1 | B-Raf | B-Raf V600E | FGFR1

O=C(c1c(F)cccc1F)c1c[nH]c2ncccc12 [Compound P-1685]
≤ 10 µM: Fms | MAP4K4 | Kit | Fak | FGFR1

NC(=O)c1cccc(-c2cnc3[nH]cc(C(=O)c4ccccc4OCc4ccccc4)c3c2)c1 [Compound P-1383]
≤ 10 µM: MAP4K4 | Flt1 | B-Raf | Kit | B-Raf V600E | Fak | FGFR1 | Src

COc1cccc(Cc2c[nH]c3ncc(-c4ccsc4)cc23)n1 [Compound P-0300]
≤ 10 µM: MAP4K4 | Stk6 | Kit | Jnk3

CCCC(=O)Nc1ccc(F)c(C(=O)c2c[nH]c3ncc(-c4cccnc4)cc23)c1F [Compound P-1279]
not listed: Stk6 | Kdr | Src
≤ 10 µM: all other assays above

CCC(C)NC(=O)Nc1ccc(F)c(C(=O)c2c[nH]c3ncc(-c4cccnc4)cc23)c1F (stereo not drawn) [Compound P-1289, 1-sec-Butyl-3-[2,4-difluoro-3-(5-pyridin-3-yl-1H-pyrrolo[2,3-b]pyridine-3-carbonyl)-phenyl]-urea]
not listed: Stk6 | Kdr
≤ 10 µM: all other assays above

CCCS(=O)(=O)Nc1ccc(F)c(C(=O)c2c[nH]c3ncc(N4CCOCC4)cc23)c1F [Compound P-0853, Propane-1-sulfonic acid [2,4-difluoro-3-(5-morpholin-4-yl-1H-pyrrolo[2,3-b]pyridine-3-carbonyl)-phenyl]-amide]
not listed: Flt1 | Stk6 | Fak | Kdr | Jnk3
≤ 10 µM: all other assays above

c1cnc2[nH]cc(Sc3ccncc3)c2c1 [Compound P-0131]
≤ 10 µM: MAP4K4 | Stk6 | Kdr
